Source: PMC11061149, “Protein mimetic 2D FAST rescues alpha synuclein aggregation mediated early and post disease Parkinson’s phenotypes” (Nature Communications, 2024)
“And” between values parts separate entries of the source, which are not always exact repeats. Equal values may be shown once.

What was measured:
[1] = molecular target: T1, α-Synuclein (αS) aggregation (Homo sapiens, UniProt P37840); assay: Thioflavin T (ThT) dye-based αS aggregation assay (de novo); format: biochemical; details: for ThT intensity of Synuclein with ligand, Average / ThT intensity of Synuclein with ligand, Trial 1-3: sheet S17; for ThT intensity of Synuclein with ligand, Average: average of 3 trials, Synuclein alone 206, ThT control 37; for ThT intensity of Synuclein with ligand, Trial 1-3: individual trials, Synuclein alone average 206, ThT control average 37
T1 construct: made in house; host or cells: E. coli BL21(DE3)
Protocol: We used a 2D FAST approach in OPs to identify potent antagonists of the aggregation of αS. In this approach, we start with a library of monopyridyls with different functional groups. The library of monopyridyls was synthesized using 2-chloro-6-methyl-3-nitropyridine as a common precursor, which was treated with primary alcohols with diverse side chain functionalities via a one-pot reaction (Fig. 1B, a and see Supplementary information for synthetic details). […] We selected the side chains containing hydrophobic, polar, positively charged, and negatively charged functional groups, which mimic the side chains of the amino acids (Fig. 1C). […] The monopyridyl library was screened against the aggregation of 100 μM αS at an equimolar ratio using Thioflavin T (ThT) dye-based aggregation assay (Fig. 1B, b). […] The chloro-dipyridyl was reacted with a library of primary amines/thiols to synthesize a library of dipyridyls (Fig. 1B, e) using a one-pot reaction. […] However, a few dipyridyls required column chromatography to separate them from the starting material side chains because of their very high boiling point (7 out of 21 dipyridyls required column, Supplementary Fig. 1). […]
Aggregation Kinetics were measured according to a previously described protocol. […] The solutions were placed in a ThermoMixer (Eppendorf, Hamberg, Germany) at 37 °C with constant shaking at 1300 rpm (rpm). At different time points, 5 μL aliquots of each αS solution were added to 95 μL PBS containing 50 μM Thioflavin T (ThT) dye in a Costar black 96 well plate (Corning Inc., Kennebunk, ME). ThT fluorescence intensity was measured (λex = 450 nm and λem = 490 nm) on an Infinite M200PRO plate reader (Tecan, Männedorf, Switzerland), and plotted against time to give a sigmoidal curve typical of amyloid aggregation. For the single point ThT aggregation, 100 μM αS, in the absence and presence of ligands, was aggregated under the described conditions and the ThT fluorescence was reported at 96 h. The reported ThT intensity values are the average of each experiment conducted in triplicate, with the error bars representing the standard deviations or standard error of the mean (s.e.m.) as described in the main manuscript.

[2] = test system: UA196 worms (human αS and GFP in DA neurons); assay: Confocal counting of healthy DA neurons in UA196 worms, early treatment (day two and four); format: in vivo, C. elegans; details: for number of intact DA neurons in UA196 worms (max. 60): 50 µM ligand on day two and four, day 15 (untreated 13.5); for Number of healthy DA neurons per trial (sheet 7L): UA196 worms + ligand, Day 15, single trials; for Total neurons, UA196 worms+Ligands: one value per trial, day not given for ligand (controls: Day 3, Day 15)
From the text: The aggregation of αS is associated with the neurodegeneration of DA neurons, which is a pathological hallmark of PD. Next, we investigated the neuroprotective effect of NS163 on the intraneuronal αS aggregation-mediated degeneration of DA neurons in a well-established C. elegans PD model (UA196)[20],[72]–[75]. The UA196 worms express both human αS and GFP in DA neurons under the control of the dopamine promoter genotype (Pdat-1::GFP; Pdat-1::α-SYN). The expression and aggregation of αS in six DA neurons that are located within the anterior region of worms lead to progressive neurodegeneration characteristics during the aging of UA196 worms. This strain has been used to gain insights into the PD-associated mechanisms and to assess the neuroprotective effect of ligands against the intraneuronal αS aggregation[20],[72]–[75]. During the aging of worms, αS protein aggregates and degenerates the DA neurons as represented by the gradual loss of cell bodies as observed from day 3 (Fig. 7b, c, filled red arrow) to day 5 (Fig. 7d, e, empty red arrow), to day 15 (Fig. 7f, g, empty red arrow). Additionally, there was fragmentation and blebbing of neurites from day 3 (Fig. 7b, c, filled yellow arrow) to day 5 (Fig. 7d, e, empty yellow arrow), which has been observed by others as well[72]–[75]. The maximum number of healthy DA neurons in one UA196 worm is six on day 3 (no degeneration) and we used 10 worms/biological replicate, which makes a total of 60 healthy DA neurons/biological replicate. Therefore, for each study, the maximum number of healthy DA neurons in UA196 worms is 60 as an average for each biological replicate. […] None of the UA196 worms had all six healthy DA neurons on day 5 (Fig. 7k, -NS163) and there was a gradual decline in the total number of healthy DA neurons in UA196 worms (Supplementary Fig. 26a). […] The average number of intact DA neurons in UA196 worms treated with NS163 was 59.5, 58.7, and 57.3 on day five, 10, and 15, respectively (Fig. 7j, red line). Additionally, the total number of treated worms with all six intact DA neurons were 57, 52, and 47 on day 5, 10, and 15, respectively (Fig. 7k, Supplementary Fig. 26b).
In UA196 strain, human αS and GFP are expressed in DA neurons under control of a dopamine transporter-specific promoter [Pdat-1::α-syn+Pdat-1::GFP], which results in age-dependent neurodegeneration of six DA neurons.
This experiment was performed based on previously described protocols with slight modifications[24],[65],[88]. Briefly, the worm strains (NL5901 or UA196) were bleached at the same time and the eggs were incubated on PLATE 1. On day two, the worms were divided into two batches. One half of the worms were transferred (using M9 buffer) on PLATE 2 (without ligand) and the second half of the worms were transferred to PLATE 3 (with ligand). The concentration of the ligands varied from 10–50 µM as described in the main manuscript. The worms were incubated on PLATE 2 or PLATE 3 up to day 3 at 20 °C in an incubator with constant humidity. On day four, the ligand (10–50 µM, stock conc. = 10 mM in DMSO, DMSO from 0.1–0.5%, v/v) was added again to PLATE 3. For confocal imaging, at least 10 worms per condition (from PLATE 2 or PLATE 3) were transferred to a cover slide containing an anesthetic (40 mM sodium azide), and mounted on glass microscope slide containing 2% agarose pads using a reported protocol. The images of the worms were collected using an Olympus Fluoview FV3000 confocal/2-photon microscope (40 x Plan-Apo/1.3 NA objective with DIC capability) and processed using the OlympusViewer in ImageJ software. For NL5901 worms, the inclusions of the aggregated αS (GFP puncta in the muscle cells) were manually counted (10 worms per condition) for the five-day imaging period (day 5 to day 9) for PLATE 2 or PLATE 3. […]

UA196 worms = assay: Confocal counting of healthy DA neurons, post-disease onset PD model of UA196 worms (treatment on day five); format: in vivo, C. elegans; details: for number of intact healthy DA neurons (max. 60): day 15 (untreated 13.8 / 12.8); for healthy DA neurons per trial: UA196 worms+Ligands, single trials 1-6, day not given; for Healthy DA neurons, UA196 worms+Ligands: individual trials 1-6
Protocol: The UA196 worms were bleached, and the eggs were incubated on PLATE 1. On day two, the UA196 worms were transferred (using M9 buffer) on PLATE 2 (without ligand). On day five, 10 UA196 worms were used to determine the number of healthy DA worms using confocal imaging (as described earlier) prior to the treatment with ligands on day five. In tandem, ~50 worms were transferred to PLATE 3 (with ligand) using M9 buffer (10-20 µL) and the plate was incubated at 20 °C in the incubator. On days 10 and 15, 10 UA196 worms from PLATE 2 (without ligand) and PLATE 3 (with ligand) were used to determine the number of healthy DA worms using confocal imaging (as described earlier). For each condition, six biological replicates were performed and at least 10 technical replicates were used for each biological replicate. […] (n = 6 independent experiments and each n consisted of a minimum of ten technical replicates).

[3] = 100 µM αS + equimolar ligand, comparison with reported ligands Fig. 5f, time 0 hr

Compound | ThT fluorescence intensity, Average [1, 3] | ThT fluorescence intensity, Average ([1]; Fig. 5f profile, time 6 hr) | ThT fluorescence intensity, Average ([1]; Fig. 5f profile, time 12 hr) | ThT fluorescence intensity, Average ([1]; Fig. 5f profile, time 24 hr) | ThT fluorescence intensity, Average ([1]; Fig. 5f profile, time 36 hr) | ThT fluorescence intensity, Average ([1]; Fig. 5f profile, time 48 hr) | ThT fluorescence intensity, Average ([1]; Fig. 5f profile, time 72 hr) | ThT fluorescence intensity, Average ([1]; Fig. 5f profile, time 96 hr) | ThT intensity of Synuclein with ligand, Average [1] | ThT intensity of Synuclein with ligand, Trial 1-3 [1] | number of intact DA neurons in UA196 worms (max. 60) [2] | Number of healthy DA neurons per trial (sheet 7L) [2] | Total neurons, UA196 worms+Ligands [2] | number of intact healthy DA neurons (max. 60) (UA196 worms; 50 μM ligand on day five) | healthy DA neurons per trial (UA196 worms) | Healthy DA neurons, UA196 worms+Ligands (UA196 worms) | decrease of the overall ThT intensity ([1]; 100 µM αS, equimolar, after 96 h) | rescue of the degeneration of DA neurons in UA196 worms, in words ([2]; 50 μM ligand) | rescue of the degeneration of DA neurons in the post-disease onset PD model, in words (UA196 worms; 50 μM ligand on day five, day 15)
C=C(c1ccc(C(=O)O)cc1)c1cc2c(cc1C)C(C)(C)CCC2(C)C [Bexarotene] | 55.6667 | 61.3333 | 52.3333 | 42 | 69.6667 | 159.667 | 195 | 186 | 186.333 | 176 and 194 and 189 | 19.3 | 19 and 22 and 20 and 16 and 21 and 18 | 19 and 22 and 20 and 16 and 21 and 18 | 13.2 | 11 and 17 and 13 and 10 | 11 and 17 and 13 and 10 |  |  | 
O=C(O[C@@H]1Cc2c(O)cc(O)cc2O[C@@H]1c1cc(O)c(O)c(O)c1)c1cc(O)c(O)c(O)c1 [EGCG] | 56 | 50.6667 | 62.3333 | 61.3333 | 75.6667 | 84 | 151.667 | 150.333 | 150.333 | 126 and 174 and 151 | 30.5 | 26 and 33 and 32 and 27 and 31 and 34 | 26 and 33 and 32 and 27 and 31 and 34 | 20.5 | 24 and 17 and 26 and 18 and 21 | 24 and 17 and 26 and 18 and 21 | ~ 25% | moderate in rescuing | moderate in rescuing
OCCc1ccc(O)cc1 [Tyrosol] | 49.6667 | 48.3333 | 49.6667 | 78.6667 | 140.667 | 137 | 175.333 | 229.667 | 229.667 | 238.6 and 233 and 217.4 | 21.7 | 22 and 23 and 17 and 21 and 24 | 22 and 23 and 17 and 21 and 24 | 14.3 | 12 and 19 and 17 and 11 and 15 | 12 and 19 and 17 and 11 and 15 |  |  | 
CCCC(CCC)C(=O)O [Valporic acid] | 62.3333 | 44 | 66.6667 | 135.333 | 121.333 | 133.333 | 167.333 | 165.667 | 165.667 | 177.5 and 155 and 164.5 | 18.7 | 21 and 16 and 22 and 17 and 20 | 21 and 16 and 22 and 17 and 20 | 13.5 | 9 and 17 and 15 and 11 and 16 and 13 | 9 and 17 and 15 and 11 and 16 and 13 |  |  | 
